# Experimental data: patent US12391768B2, “Antibodies to ticagrelor and methods of use” (MEDIMMUNE LIMITED, priority 2014, dated 2025)
# Positions count from the first letter of the chain named. Read-outs that look alike come from different tables or passages of the source.
# B1: TICA0152: VL CDR3 variant of TICA0072; VH SEQ ID NO:62, VL SEQ ID NO:67 (antibody, listed as Homo sapiens, V domains shown)
# VH: QVQLQESGAEVKKPGSSVRVSCKASGGTFDSYSIHWVRQAPGQGLEWMGGIIPAFGTLSSAQDFQARVTISADKSTSTAYMELSGLRSEDTAVYYCARGSHLYDFWSASHPPNDALAIWGQGTLVTVSS
# VL: QSVVTQPPSVSAAPGQKVTISCSGSNSDIGNNYVSWYQQLPGTAPKLLIYDNNKRPSGIPDRFSGSKSGTSATLAITGLQAGDEADYYCGTWLYDRAVGLFGGGTKVTVL
# B2: TICA0162: VH CDR3 variant of TICA0072; VH SEQ ID NO:52, VL SEQ ID NO:57 (antibody, listed as Homo sapiens, V domains shown)
# VH: B1 VH with H101F, L102D, D104Y
# VL: B1 VL with L93D, Y94I, D95S, R96L, A97S, V98A
# What was measured:
# TICA0049 Fab = experiment: HTRF competition binding selectivity assay, TICA0049 His-Fab; design: species or system human
# Protocol: (§1) Total Binding control wells were set up which contained all of the assay components above except that 5 ul assay buffer was added in place of the test selectivity compound addition. Negative Binding control wells were set up which contained all of the assay components included in the Total Binding control wells except that 5ul assay buffer was added in place of the His-Fab addition. Test compound serial titrations were either ½ or ⅓ depending on the particular experiment and top final assay compound concentrations were optimized on a compound specific basis. The concentration of biotinylated ticagrelor and His-Fab was optimized on a Fab specific basis in separate experiments. For the four Fabs investigated at the end of the lead isolation phase (TICA0010, TICA0049, TICA0053 and TICA0072) the final assay reagent concentrations used are set out in Table 1 below:
# (§2) For the two Fabs investigated at the end of the lead optimization phase (TICA0162 and TICA0212) the final assay reagent concentrations used were 5nM biotinylated ticagrelor and 1 nM His Fab in both cases. […] In order to enable subsequent normalization of data to correct for any such vehicle related effects parallel titrations of DMSO alone were included in most experiments in which the final assay DMSO concentrations mirrored those of the test compound serial dilutions. At the end of the set up procedure that assay was incubated for 3hrs at RT before being read on an Envision plate reader using a standard read protocol.
# (§3) The negative ratio value used in the calculation of % Delta F was derived from the Negative Binding control wells. % Delta F values were then used to calculate % Specific Binding values according to the equation below: Specific Binding (%)={(Sample Delta F−Negative Binding Delta F)/(Total Binding Delta F−Negative Binding Delta F)}×100
# (§4) For standard calculations of % Specific Binding Total Binding Delta F was taken from Total Binding control wells which contained all of the aforementioned components of the assay but without inclusion of any competing test compound.
# (§5) In those experiments where DMSO normalization was applied DMSO normalised % Specific Binding was calculated essentially according to the equation above except that in this case Total Binding Delta F was taken from wells containing all of the components in the Total Binding control wells as well as DMSO at a concentration equivalent to that in the relevant sample well.
# (§6) In a second series of experiments further selectivity data was generated for TICA0049 and TICA0072 Fabs in which a subset of four of the twelve compounds listed in FIG. 4 were retested along with ticagrelor, TAM and TIM and several adenosine related compounds. Here, in a refinement to the earlier investigations in Table 2, experiments were designed in order to enable normalisation of percent specific binding values to correct for any non-specific vehicle related effects due to DMSO. Example plotted data from this second series of experiments is shown in FIG. 5A-F along with tabulated IC50 values in Table 3.
# TICA0072 Fab = experiment: HTRF competition binding selectivity assay, TICA0072 His-Fab; design: species or system human; settings: second series (Table 3), DMSO normalised
# Protocol: as §1, §2, §3, §4, §5, §6
# TICA0010 Fab = experiment: HTRF competition binding selectivity assay, TICA0010 His-Fab; design: species or system human; settings: first series (Table 2), not DMSO normalised
# Protocol: as §1, §2, §3, §4, §5
# TICA0053 Fab = experiment: HTRF competition binding selectivity assay, TICA0053 His-Fab; design: species or system human; settings: first series (Table 2), not DMSO normalised
# Protocol: as §1, §2, §3, §4, §5
# TICA0162 Fab = experiment: HTRF competition binding selectivity assay, TICA0162 His-Fab; design: species or system human; settings: Table 7, DMSO normalised; 5 nM biotinylated ticagrelor, 1 nM His Fab; read-out: IC50 (uM) for inhibition of biotinylated ticagrelor binding to TICA0162 Fab
# Protocol: as §1
# as §2, with “protocol. […]” for “protocol.”
# as §5
# [1] = human, in vivo; cited from earlier work
# [2] = target: TICA0159 IgG binding to biotinylated ticagrelor; experiment: Second generation HTRF epitope competition assay; settings: for IC50: Fab, 16 nM TICA0159 IgG, 1 nM biotinylated ticagrelor; for Fold Improved: IC50 relative to parent TICA0072 Fab
# Protocol: Purified parent TICA0072 (scFv or Fab) was used as a benchmark in all experiments such that improvements in IC50 measured with optimized variants (scFv or Fab) could be expressed as fold improvements over parent TICA0072. Total Binding Control Wells contained all assay components except that 5 ul assay buffer was added in place of the purified scFv or Fab sample. Negative Binding control wells contained all of the components of the Total Binding control wells except that 5 ul of assay buffer was added in place of the TICA0072 IgG.
# In both single point HTS and multipoint IC50 profiling versions of the assay. plates were incubated for 3 hrs at RT before being read on an Envision plate reader using a standard HTRF read protocol in which samples are excited at 337 nm and time resolved fluorescence emission is measured at both 620 nm and 665 nM.
# Raw 665 nm and 620 nm counts were used to calculate Delta F (%) and % Specific Binding according to the equations described earlier in Assays 1 and 4, respectively. For multipoint secondary profiling experiments IC50 values were determined using Graphpad Prism software using sigmoidal dose response (variable slope) curve fitting (4 parameter logistic equation).
# This assay was used only in multipoint IC50 profiling format (as opposed to HTS format) and was performed essentially identically to the method given in Assay 5 (above) for multipoint IC50 profiling of purified Fab variants in the parent TICA0072 IgG based epitope competition assay. The only difference being that TICA0159 IgG was used in place of TICA0072 IgG at the appropriate point in the assay set up but at the same 16nM final assay concentration. In all other respects this assay was performed exactly as described above in the multipoint secondary profiling version for purified Fab.
# [3] = Equilibrium affinity by KinExA3200, ticagrelor; assay type: binding; settings: modifications in VL CDR3 or VH CDR3 only
# Protocol: The affinity of anti-ticagrelor/TAM Fabs generated in Example 5 was determined using the KinExA3200. For the KinExA affinity measurement, beads (600 mg Azlactone beads) were first prepared by reacting them overnight with 1 mg streptavidin in 50 mM NaHCO3. Following blocking with 2 changes of Tris buffer (1M Tris pH 8.7, 10 mg/mL BSA) the streptavidin coated beads were resuspended in a total volume of 8 mL. Beads (1.33 mL, equivalent to 100 mg original dry Azlactone beads) were washed completely with PBS, then allowed to bind to approximately 2.5 μg biotin-ticagrelor in 1 mL PBS for 10 minutes with occasional agitation. […]
# All assays were performed at room temperature. […] Bound antibody was then detected using DyLight649 labelled mouse anti-human Heavy and Light chain antibody. Sample volume (300-1300 μL) and injection time (90-120 s) varied with concentration, and 2 -3 reads were varied out per sample. The data were analysed using the KinExA n-Curve Analysis software. Using the Constant Partner analysis the equilibrium KD for the anti-ticagrelor Fab antibodies was determined.
# As in the prior Example, Fabs were allowed to equilibrate at room temperature in the presence of either unmodified ticagrelor or TAM at concentrations from 20-fold excess. […] Bound antibody was then detected using a DyLight649 labelled mouse anti-human Heavy and Light chain detection antibody. […]
# [4] = second series (Table 3), DMSO normalised
# [5] = second series (Table 3), DMSO normalised, read-out: IC50 in competition binding selectivity studies, TICA0049
# [6] = first series (Table 2), not DMSO normalised
# [7] = first series (Table 2), not DMSO normalised, read-out: IC50 (uM) for inhibition of biotinylated ticagrelor binding to TICA0049 his-Fab
molecule,measurement,setting,value
"Nc1ncnc2c1ncn2[C@@H]1O[C@H](COP(=O)(O)OP(=O)(O)O)[C@@H](O)[C@H]1O [ADP, adenosine diphosphate]","IC50 in competition binding selectivity studies, TICA0049",TICA0049 Fab; [4],trace of inhibition
same,"IC50 in competition binding selectivity studies, TICA0072",TICA0072 Fab,trace of inhibition
"Nc1ncnc2c1ncn2[C@@H]1O[C@H](COP(=O)(O)OP(=O)(O)OP(=O)(O)O)[C@@H](O)[C@H]1O [ATP, adenosine triphosphate]","IC50 in competition binding selectivity studies, TICA0049",TICA0049 Fab; [4],trace of inhibition
same,"IC50 in competition binding selectivity studies, TICA0072",TICA0072 Fab,trace of inhibition
Nc1ncnc2c1ncn2[C@@H]1O[C@H](CO)[C@@H](O)[C@H]1O [Adenosine],"IC50 in competition binding selectivity studies, TICA0049",TICA0049 Fab; [4],trace of inhibition
same,"IC50 in competition binding selectivity studies, TICA0072",TICA0072 Fab,trace of inhibition
CCCC(=O)Nc1ncnc2c1ncn2[C@@H]1O[C@@H]2COP(=O)(O)O[C@H]2[C@H]1OC(=O)CCC [Bucladesine],"IC50 in competition binding selectivity studies, TICA0049",TICA0049 Fab; [4],weak inhibition
same,IC50,TICA0049 Fab; [5],865 µM
CSCCNc1nc(SCCC(F)(F)F)nc2c1ncn2[C@@H]1O[C@H](COP(=O)(O)OP(=O)(O)C(Cl)(Cl)P(=O)(O)O)[C@@H](O)[C@H]1O [Cangrelor],IC50 (uM) for inhibition of biotinylated ticagrelor binding to TICA00l0 his-Fab,TICA0010 Fab,competitive inhibition
same,IC50,TICA0010 Fab; read-out: IC50 (uM) for inhibition of biotinylated ticagrelor binding to TICA00l0 his-Fab,102 µM
same,IC50 (uM) for inhibition of biotinylated ticagrelor binding to TICA0049 his-Fab,TICA0049 Fab; [6],competitive inhibition
same,IC50,TICA0049 Fab; [7],208 µM
same,"IC50 in competition binding selectivity studies, TICA0049",TICA0049 Fab; [4],significant inhibition
same,IC50,TICA0049 Fab; [5],188 µM
same,IC50 (uM) for inhibition of biotinylated ticagrelor binding to TICA0053 his-Fab,TICA0053 Fab,competitive inhibition
same,IC50,TICA0053 Fab; read-out: IC50 (uM) for inhibition of biotinylated ticagrelor binding to TICA0053 his-Fab,17.5 µM
NS(=O)(=O)c1cc2c(cc1Cl)NC(C1CC3C=CC1C3)NS2(=O)=O (centres unmarked) [Cyclothiazide],IC50,TICA0162 Fab,> 1000 µM
CC(=O)NC[C@H]1CN(c2ccc(N3CCOCC3)c(F)c2)C(=O)O1 [Linezolid],IC50 (uM) for inhibition of biotinylated ticagrelor binding to TICA0049 his-Fab,TICA0049 Fab; [6],partial competitive inhibition
same,IC50,TICA0049 Fab; [7],467 µM
same,"IC50 in competition binding selectivity studies, TICA0049",TICA0049 Fab; [4],weak inhibition
same,IC50,TICA0049 Fab; [5],902 µM
CCCSc1nc(N)c2nnn(C3CC(OCCO)C(O)C3O)c2n1 (centres unmarked) [TIM],detectability in circulation,[1],undetectable after 8 hours
same,fraction of the parent ticagrelor,[1],< 10%
B1,IC50,[2],0.0735 µM
same,Fold Improved,[2],23.3
same,fold improvement over TICA0072,[3],200 fold
B2,IC50,[2],0.0163 µM
same,Fold Improved,[2],105.2
same,fold improvement over TICA0072,[3],50 fold
